Laboratory results as given in ChEMBL document CHEMBL3301361, “Experimental in vitro DMPK and physicochemical data on a set of publicly disclosed compounds”.

assay: physchem; conditions: octan-1-ol/water, pH 7.4, LogD7.4

SMILES | logD
COc1cccc(C(COCc2cc(C(F)(F)F)cc(C(F)(F)F)c2)N2CCNCC2)c1 (stereo not given) | 3.1
O=S(=O)(NCC(c1ccccc1)N1CCCCCC1)c1cccc(C(F)(F)F)c1 (stereo not given) | 3.12
COc1ccc(S(=O)(=O)NCC(c2ccccc2)N2CCCCCC2)cc1 (stereo not given) | 3.13
Fc1cccc(C(COCc2cc(C(F)(F)F)cc(C(F)(F)F)c2)N2CCNCC2)c1 (stereo not given) | 3.2
CCN(C(=O)Nc1ccccc1)c1ccccc1 | 3.1
COc1cnc(-c2ccccn2)nc1Oc1ccc(F)cc1F | 3.1
O=C(Nc1ccc(F)cc1)c1cccnc1Oc1ccccc1 | 3.19
O=C(CSc1ccccc1)N1CCN(c2ccccc2)CC1 | 3.2
COc1cc2c(Nc3ccc(Cl)cc3F)ncnc2cc1OCCn1cncn1 | 3.2
CCN1CCN(C(=O)c2cc3cc(Cl)ccc3[nH]2)CC1 | 3.14
Cc1cc(C)c2c(n1)sc1c(N3CCN(C)CC3)ncnc12 | 3.2
Nc1cccc2c1C(=O)N(Cc1cccc(Cl)c1)C2=O | 3.18
Nc1c2c(nc3ccc(Br)cc13)N(c1ccccc1)CC2 | 3.12
COCCN1CCN(CC(=O)Nc2ccc(-c3cccn4c(=O)cc(N5CCOCC5)nc34)c3sc4ccccc4c23)CC1 | 3.2
Nc1nc2ccc(-c3cccc(O)c3)cc2s1 | 3.1
O=C1CCOc2nc(OCc3ccccc3)ccc21 | 3.1
CN1CCOc2cc(COC3CCCCC3)cnc21 | 3.1
CC[C@H](NC(=O)c1c([S+](C)[O-])c(-c2ccccc2)nc2ccccc12)c1ccccc1 (stereo not given in full) | 3.17
CC[C@H](NC(=O)c1c(S(C)(=O)=O)c(-c2ccccc2)nc2ccccc12)c1ccccc1 | 3.17
CC[C@H](NC(=O)c1c(CC[S+](C)[O-])c(-c2ccccc2)nc2ccccc12)c1ccccc1 (stereo not given in full) | 3.15
CC[C@H](NC(=O)c1c([S+](C)[O-])c(-c2cccc(F)c2)nc2ccccc12)c1ccccc1 (stereo not given in full) | 3.14
CC[C@H](NC(=O)c1c([S+](C)[O-])c(-c2ccccc2)nc2cc(Cl)ccc12)c1ccccc1 (stereo not given in full) | 3.07
CC[C@H](NC(=O)c1c([S+](C)[O-])c(-c2ccccc2)nc2cc(Br)ccc12)c1ccccc1 (stereo not given in full) | 3.18
COc1cccc(Nc2ncnc3cc(OC)c(OC)cc23)c1 | 3.1
Cc1ncccc1Oc1ncnc(OC2C3COCC2CN(C(=O)OC(C)C)C3)c1C (stereo not given) | 3.1

SMILES | logD
COc1cc(N2CCN(CCS(C)(=O)=O)CC2)ccc1Nc1ncc(Cl)c(-c2cnc3ccccn23)n1 | 3.1
COc1cc(N2CCN(C(C)=O)CC2)ccc1Nc1ncc(Cl)c(-c2cnc3c(F)cc(F)cn23)n1 | 3.2
CN(C)c1nc(N[C@H]2CC[C@@H](NC(=O)c3ccc(F)c(F)c3)CC2)nc2ccccc12 | 3.13
COc1ccc(C(=O)Nc2cc(NC(=O)c3cccc(N(C)C)c3)ccc2C)cc1 | 3.17
O=C(Cc1ccccc1)c1ccc(O)cc1O | 3.09
CONC(=O)c1cnc(N2CCC(NC(=O)c3[nH]c(C)c(Cl)c3Cl)CC2)s1 | 3.1
COC(=O)c1ccc(NC(=O)c2cc(OC)c(OC)c(OC)c2)cc1 | 3.2
COc1ccc(-c2nc3c(NCCCNC(=O)C4CCCC4)c(C(N)=O)cnc3[nH]2)cc1 | 3.13
Nc1cc2n[nH]c(=O)n2c2cc(-c3ccsc3)ccc12 | 3.18
Nc1nc2nc(SCc3ccccc3)nc(N)c2s1 | 3.1
CN(C)C(=O)N[C@H]1CC[C@H](CCN2CCN(c3ccc(Cl)c(Cl)c3)CC2)CC1 | 3.15
Cc1cnc(-c2ccc(C)c(NC(=O)c3ccc(OCc4ccccn4)cc3)c2)[nH]1 | 3.19
Cc1ccc(-c2ncc(CN3CCOCC3)s2)cc1NC(=O)c1ccc(OCc2ccccn2)cc1 | 3.1
CCN(CC)CCOc1ccc(N(C)C(=O)c2ccc(-c3ccc(C(F)(F)F)cc3)cc2)cc1OC | 3.13
COc1ccc(Oc2cccc(CN3CCCC(n4cc(C)c(=O)[nH]c4=O)C3)c2)cc1 (stereo not given) | 3.17
CC(C)Cn1c(=O)n(C)c(=O)c2c(C(=O)N3C[C@H](O)CO3)c(Cc3ccccc3C(F)(F)F)sc21 | 3.15
CN(C)S(=O)(=O)c1ccc2c(C(=O)NC[C@@H](O)CN3CCC(Oc4ccc(Cl)c(Cl)c4)CC3)c[nH]c(=O)c2c1 | 3.13
O=C(NC[C@@H](O)CN1CCC(Oc2ccc(Cl)c(Cl)c2)CC1)c1c[nH]c(=O)c2c(F)cccc12 | 3.15
O=C(NC[C@@H](O)CN1CCC(Oc2ccc(Cl)c(Cl)c2)CC1)c1c[nH]nc1C1CC1 | 3.15
N#Cc1cccc(OC[C@@H](O)CNC2CCN(Cc3ccc(Cl)c(Cl)c3)CC2)c1 | 3.09
COc1cc2ncnc(Nc3ccc(F)cc3)c2cc1OC | 3.1
C[S+]([O-])CCN1C(=O)C(NC(=O)c2cc3cc(Cl)sc3[nH]2)Cc2ccccc21 (stereo not given) | 3.17
CC(=O)N[C@@H](C)c1ccc(Nc2ncc3cc(-c4ccncc4)ccc3n2)cc1 | 3.17
COCCOc1ccc(Nc2ncc3cc(-c4ccncc4)ccc3n2)cc1 | 3.1
COCCC(=O)N[C@H](C)c1ccc(Nc2ncc3cc(-c4ccncc4)ccc3n2)cc1 | 3.08

SMILES | logD
CC(=O)NC(C)c1ccc(Nc2ncc3cc(-c4ccncc4)ccc3n2)cc1 (stereo not given) | 3.1
CC(=O)N[C@H](C)c1ccc(Nc2ncc3cc(-c4ccncc4)ccc3n2)cc1 | 3.18
C[C@@H](NC1=CC(=O)CCC1)c1ccc(Nc2ncc3cc(-c4ccncc4)ccc3n2)cc1 | 3.17
COc1cc2nc(Nc3ccc([C@@H](C)NC(C)=O)cc3)ncc2cc1-c1ccncc1 | 3.11
c1cn(-c2ccc(Oc3cc(Oc4ccc5c(c4)OCO5)ncn3)cc2)cn1 | 3.17
COc1ccc(-c2cc(NC(=O)Cc3ccc4ccccc4c3)[nH]n2)cc1OC | 3.1
COc1cc2ncnc(Nc3ccc(F)c(Cl)c3)c2cc1OCCCN1CCCC1 | 3.13
C#CCN(c1ccnc(Nc2ccc(OCC(O)CN(C)C)cc2)n1)c1cc(Cl)ccc1Cl (stereo not given) | 3.2
CC(O)(C(=O)Nc1ccc(S(=O)(=O)c2ccc(F)cc2)cc1)C(F)(F)F (stereo not given) | 3.12
O=C1NC(=O)c2cc(OCc3ccccc3)ccc21 | 3.1
Cc1ccc(NC(=O)c2cccc(N(C)C)c2)cc1NC(=O)c1ccc(OC(C)C)cc1 | 3.1
C[C@H](CO)Nc1nc(SCc2cccc(F)c2F)nc2nccnc12 | 3.15
COc1ccc(C(=O)Nc2cc(NC(=O)c3cccc(N(C)C)c3)ccc2C)cc1OC | 3.12
CC(C)Cn1c(=O)n(C)c(=O)c2c(C(=O)N3CC(C)(O)C3)c(Cc3ccccc3C(F)(F)F)sc21 | 3.18
Cc1ncc(-c2nc(Nc3ccc(C(N)=O)c(F)c3)ncc2F)n1C(C)C | 3.14
O=c1oc2ccc(O)cc2cc1-c1ccccc1 | 3.12
Cc1oc(S(C)(=O)=O)cc1-c1c2c(=O)n(C)c(=O)n(CC3CC3)c2nn1Cc1ccnc2ccc(Cl)cc12 | 3.2
Cc1ccc(NC(=O)c2cccc(C(F)(F)F)c2)cc1NC(=O)c1cccnc1 | 3.11
O=C1C(=O)c2cc(-c3ccsc3)ccc2-c2ccccc21 | 3.1
COc1cc2ncc(C(N)=O)c(Nc3cc(C)ccc3F)c2cc1OC | 3.16
O=C(CC1CCN(Cc2ccn(-c3ccc(C(F)(F)F)cc3)c2)CC1)NC(c1ccc(F)cc1)c1c[nH]c(=O)c(Cl)c1 (stereo not given) | 3.12
CCNc1nc(C#N)nc(Nc2ccccc2)n1 | 3.11
Cn1c(-c2ccccc2)cc2onc(-c3ccncc3)c2c1=O | 3.17
Oc1ccc(-c2ccc3cc(O)ccc3n2)cc1 | 3.1
O=[N+]([O-])c1ccc2c(c1)N(c1cccc[n+]1[O-])CC(C(F)F)(C(F)F)O2 | 3.2
